Patent publication US11878966B2, “Substituted 4-benzyl and 4-benzoyl piperidine derivates” (89BIO LTD, priority 2015, dated 2024)
pIC50: −log10 of the molar value.

The molecules below were run against T1, recombinant human baculovirus-expressed GST-tagged FASN (Homo sapiens, UniProt P49327) (assay: FASN enzyme activity assay: fluorescence-based detection of CoA with CPM). Details: 5 nM FASN, 150 μM NADPH, 10 μM acetyl-CoA, 25 μM malonyl-CoA, 90 minutes incubation.
T1 construct: GST; host or cells: baculovirus expression system (insect cells implied)
T1 sequence (P49327 whole entry): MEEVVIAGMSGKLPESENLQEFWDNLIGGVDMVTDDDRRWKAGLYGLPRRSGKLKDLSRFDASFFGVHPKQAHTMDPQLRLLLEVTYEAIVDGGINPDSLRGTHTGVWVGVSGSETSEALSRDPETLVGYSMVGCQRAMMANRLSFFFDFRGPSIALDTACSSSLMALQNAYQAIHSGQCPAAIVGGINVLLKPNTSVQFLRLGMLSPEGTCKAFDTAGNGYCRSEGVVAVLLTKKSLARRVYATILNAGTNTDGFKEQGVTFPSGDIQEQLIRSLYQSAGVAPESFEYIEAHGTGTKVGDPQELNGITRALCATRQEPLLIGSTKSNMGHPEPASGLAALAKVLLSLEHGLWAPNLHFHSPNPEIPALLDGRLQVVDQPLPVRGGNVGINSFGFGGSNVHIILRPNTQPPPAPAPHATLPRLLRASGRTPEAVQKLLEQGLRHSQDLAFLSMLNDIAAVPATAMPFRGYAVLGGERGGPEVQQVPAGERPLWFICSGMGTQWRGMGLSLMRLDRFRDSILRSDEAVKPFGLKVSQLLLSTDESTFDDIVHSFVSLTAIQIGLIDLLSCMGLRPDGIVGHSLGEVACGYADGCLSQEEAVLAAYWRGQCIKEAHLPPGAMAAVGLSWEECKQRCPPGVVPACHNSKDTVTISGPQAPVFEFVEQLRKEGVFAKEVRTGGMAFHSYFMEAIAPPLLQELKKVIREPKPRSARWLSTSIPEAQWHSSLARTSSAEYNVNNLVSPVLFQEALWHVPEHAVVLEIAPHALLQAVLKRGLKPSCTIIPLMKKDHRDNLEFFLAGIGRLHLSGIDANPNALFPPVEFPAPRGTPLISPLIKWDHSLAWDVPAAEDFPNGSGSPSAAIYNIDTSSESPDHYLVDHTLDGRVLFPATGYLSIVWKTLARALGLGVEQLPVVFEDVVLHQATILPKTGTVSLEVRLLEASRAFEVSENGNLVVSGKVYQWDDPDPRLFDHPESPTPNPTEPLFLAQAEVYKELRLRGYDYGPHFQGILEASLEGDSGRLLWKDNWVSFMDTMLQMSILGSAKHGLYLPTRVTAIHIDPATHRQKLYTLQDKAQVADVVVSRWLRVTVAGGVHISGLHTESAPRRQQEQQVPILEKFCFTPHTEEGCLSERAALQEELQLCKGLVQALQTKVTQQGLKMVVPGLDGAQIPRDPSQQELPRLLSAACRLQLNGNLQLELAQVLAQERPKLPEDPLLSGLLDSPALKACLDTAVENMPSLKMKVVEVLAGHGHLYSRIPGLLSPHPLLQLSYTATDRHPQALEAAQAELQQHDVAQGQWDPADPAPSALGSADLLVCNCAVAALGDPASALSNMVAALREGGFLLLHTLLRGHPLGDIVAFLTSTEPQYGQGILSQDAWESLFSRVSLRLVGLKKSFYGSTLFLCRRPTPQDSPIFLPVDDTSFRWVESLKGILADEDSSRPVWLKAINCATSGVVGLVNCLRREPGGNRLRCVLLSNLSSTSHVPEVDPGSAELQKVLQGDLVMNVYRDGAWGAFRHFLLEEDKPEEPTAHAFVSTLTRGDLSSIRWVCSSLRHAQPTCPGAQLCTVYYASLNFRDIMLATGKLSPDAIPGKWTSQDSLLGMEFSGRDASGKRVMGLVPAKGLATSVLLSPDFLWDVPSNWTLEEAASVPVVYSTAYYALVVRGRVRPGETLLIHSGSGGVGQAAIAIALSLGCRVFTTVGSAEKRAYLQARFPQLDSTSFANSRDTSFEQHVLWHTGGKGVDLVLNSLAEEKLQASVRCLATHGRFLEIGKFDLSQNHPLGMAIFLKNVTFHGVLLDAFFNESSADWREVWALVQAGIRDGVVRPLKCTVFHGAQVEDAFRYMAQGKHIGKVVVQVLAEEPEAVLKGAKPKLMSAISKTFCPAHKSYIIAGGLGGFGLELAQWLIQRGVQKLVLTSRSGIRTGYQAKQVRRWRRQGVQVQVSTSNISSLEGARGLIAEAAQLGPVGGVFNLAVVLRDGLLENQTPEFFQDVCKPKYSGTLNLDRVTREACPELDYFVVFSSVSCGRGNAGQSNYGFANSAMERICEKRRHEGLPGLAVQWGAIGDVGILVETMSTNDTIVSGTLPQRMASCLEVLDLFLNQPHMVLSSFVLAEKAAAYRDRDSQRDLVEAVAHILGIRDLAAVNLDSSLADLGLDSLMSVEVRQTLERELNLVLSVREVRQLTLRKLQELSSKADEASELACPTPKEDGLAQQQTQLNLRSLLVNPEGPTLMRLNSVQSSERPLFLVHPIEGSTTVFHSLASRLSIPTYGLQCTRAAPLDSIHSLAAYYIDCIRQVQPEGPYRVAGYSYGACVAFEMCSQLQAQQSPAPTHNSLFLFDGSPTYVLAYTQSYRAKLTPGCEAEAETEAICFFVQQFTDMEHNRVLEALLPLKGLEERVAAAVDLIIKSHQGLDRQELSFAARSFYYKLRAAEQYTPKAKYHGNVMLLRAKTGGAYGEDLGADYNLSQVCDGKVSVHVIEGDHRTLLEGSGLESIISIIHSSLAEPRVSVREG
Format: biochemical
Excerpt: FASN Enzyme activity may be determined by detecting coenzyme A (CoA), a product of FASN-catalyzed synthesis of palmitate from acetyl-CoA and malonyl-CoA with NADPH as a cofactor. The assay is fluorescence-based and measures the interaction of free CoA with 7-diethylamino-3-(4′-malemimidylphenyl)-4-methylcoumarin (CPM; Life Technologies, CA) as described in Chung et al (2008). The coumarin derivative CPM contains a thiol-reactive maleimide that becomes fluorescent upon interaction with the sulfhydryl group of CoA.
For the example compounds described herein, the reaction was performed in 384-well low volume non-binding platews (Corning, NY) using recombinant human baculovirus-expressed GST-tagged FASN. The 20-μL assay mixture contained 50 mM HEPES (pH 7.5), 5 nM FASN, 150 μM NADPH (Sigma, St. Louis, MO), 10 μM acetyl-CoA (Sigma), 25 μM malonyl-CoA (Sigma) and test compound [diluted in dimethyl sulfoxide (DMSO); 0.5% DMSO final in assay after 100 nL addition]. See, Chung et al.; “A fluorescence-based thiol quantification assay for ultra-high-throughput screening for inhibitors of coenzyme A production,” Assay Drug Dev Tech 2008; 6:361-374.
The reaction was initiated by adding malonyl-CoA, followed by incubation for 90 minutes at […]. A stock solution of the CPM reagent was prepared in DMSO al 66 μM and stored at […]. To detect CoA produced in the FASN reaction, the CPM stock was diluted to 50 μM in 70% ethanol and added at 4 μL/well to the assay place. The reaction mixture was then incubated for 30 minutes. Fluorescence was measured using the EnVision™ 2102 multi-label plate reader (PerkinElmer, Waltham, MA) utilizing a general dual mirror, a 390 nm excitation filter and a 530 nm emission filter. Data analysis was performed using ActivityBase (IDBS, Guilford, UK). IC50 values were calculated by plotting the percent inhibition versus log 10 of the concentration of the compound, and fitting to the nonlinear regression sigmoidal dose-response (variable slope) equation in XLFit (IDBS).
`O=C(C1CC1)N1CCC(C(F)(F)c2ccc(-c3cnc4ccccc4c3)cc2)CC1` [Example 17, Cyclopropyl-{4-[difluoro-(4-quinolin-3-yl-phenyl)-methyl]-piperidin-1-yl}-methanone] gave a pIC50 of 6.00 to 7.00. Work on `CCC(=O)N1CCC(C(NC=O)c2ccc(-c3cnc4ccccc4c3)cc2)CC1` (centres unmarked) [Example 55, N-[(1-Propionylpiperidin-4-yl)-(4-quinolin-3-yl-phenyl)-methyl]-formamide] yielded a pIC50 of 5.00 to 6.00. Work on `Cc1nccc2cc(-c3ccc(CC4CCN(C(=O)[C@H]5CCCO5)CC4)cc3)ccc12` [Example 37, {4-[4-(1-methylisoquinolin-6-yl)-benzyl]-piperidin-1-yl}-(R)-tetrahydro-furan-2-yl-methanone] yielded a pIC50 of 7.00 to 9.00. `Cc1c(-c2ccc(CC3CCN(C(=O)C4CC4)CC3)cc2)ccc2cccnc12` [Example 24, Cyclopropyl-{4-[4-(8-methylquinolin-7-yl)-benzyl]-piperidin-1-yl}-methanone] gave a pIC50 of 7.00 to 9.00. Molecule `CCC(=O)N1CCC(Cc2ccc(-c3ccc4c(C)nccc4c3)cc2)CC1` [Example 35, 1-{4-[4-(1-methylisoquinolin-6-yl)-benzyl]-piperidin-1-yl}-propan-1-one] has a pIC50 of 7.00 to 9.00. For `CCC(=O)N1CCC(C)(Cc2ccc(-c3cnc4ccccc4c3)cc2)CC1` [Example 59, 1-[4-Methyl-4-(4-quinolin-3-yl-benzyl)-piperidin-1-yl]-propan-1-one], the pIC50 was 6.00 to 7.00. For `O=C(C1CC1)N1CCC(C2(c3ccc(-c4ccc5cccnc5c4)cc3)OCCO2)CC1` [Example 112, Cyclopropyl-{4-[2-(4-quinolin-7-yl-phenyl)-1,3-dioxolan-2-yl]-piperidin-1-yl}-methanone], the pIC50 was 5.00 to 6.00. For `CCC(=O)N1CCC(C(=O)c2ccc(-c3ccc4cccnc4c3)cc2F)CC1` [Example 142, 1-[4-(2-Fluoro-4-quinolin-7-yl-benzoyl)-piperidin-1-yl]-propan-1-one], the pIC50 was 6.00 to 7.00. Work on `CCC(=O)N1CCC(C(=O)c2ccc(-c3ccc4cnccc4c3)cc2)CC1` [Example 129, 1-[4-(4-Isoquinolin-6-yl-benzoyl)-piperidin-1-yl]-propan-1-one] yielded a pIC50 of 5.00 to 6.00. For `Cc1c(-c2ccc(CC3CCN(C(=O)[C@H]4CCCO4)CC3)cc2)ccc2cccnc12` [Example 25, {4-[4-(8-Methylquinolin-7-yl)-benzyl]-piperidin-1-yl}-(R)-tetrahydrofuran-2-yl-methanone], the pIC50 was 7.00 to 9.00. For `O=C(C1CC1)N1CCC(C2(c3ccc(-c4ccc5cccnc5c4)cc3)OCCCO2)CC1` [Example 122, Cyclopropyl-{4-[2-(4-quinolin-7-yl-phenyl)-1,3-dioxinan-2-yl]-piperidin-1-yl}-methanone], the pIC50 was 5.00 to 6.00. Work on `CCC(=O)N1CCC(F)(C(=O)c2ccc(-c3ccc4cccnc4c3C)cc2)CC1` [Example 222, 1-{4-Fluoro-4-[4-(8-methylquinolin-7-yl)-benzoyl]-piperidin-1-yl}-propan-1-one] yielded a pIC50 of 5.00 to 6.00. In the case of `COc1c(-c2ccc(CC3CCN(C(=O)C4CC4)CC3)cc2)ccc2cccnc12` [Example 33, Cyclopropyl-{4-[4-(8-methoxyquinolin-7-yl)-benzyl]-piperidin-1-yl}-methanone], the pIC50 was 7.00 to 9.00. Work on `CCC(=O)N1CC[C@@H](Cc2ccc(-c3cnc4ccccc4c3)cc2)[C@H](OC)C1` (relative stereo) [Example 219, 1-[(trans)-3-Methoxy-4-(4-quinolin-3-yl-benzyl)-piperidin-1-yl]-propan-1-one] yielded a pIC50 of 6.00 to 7.00. With `O=C(C1CC1)N1CCC(Cc2ccc(-c3cnc4ccccc4c3Cl)cc2)CC1` [Example 20, {4-[4-(4-Chloroquinolin-3-yl)-benzyl]-piperidin-1-yl}-cyclopropylmethanone] the pIC50 was 7.00 to 9.00. With `CC(C)(c1ccc(-c2cnc3ccccc3c2)cc1)C1CCN(C(=O)[C@H]2CCCO2)CC1` [Example 203] the pIC50 was 7.00 to 9.00. `O=C([C@H]1CCCO1)N1CCC(F)(Cc2ccc(-c3cnc4ccccc4c3Cl)cc2)CC1` [Example 201, (R)-(4-(4-(4-chloroquinolin-3-yl)benzyl)-4-fluoropiperidin-1-yl)(tetrahydrofuran-2-yl)methanone] gave a pIC50 of 7.00 to 9.00.
